Publication PMC9030827, “In Vitro Effects of Mitochondria-Targeted Antioxidants in a Small-Cell Carcinoma of the Ovary of Hypercalcemic Type and in Type 1 and Type 2 Endometrial Cancer” (Biomedicines, 2022)
“Also recorded” adds a separate entry of the source.

Legend:
Format in all cases: cell-based, human
COV434 cells [1] = assay: Cell morphology by Giemsa staining; details: COV434, 72 h; 5 μM Mito6_TPP, 20 μM Mito6_picol., 10 μM Mito6_isoq.
Experimental: (§1) Morphological changes in all cell lines were evaluated by phase-contrast microscopy (Eclipse TS100 Inverted Microscope, Nikon, Tokyo, Japan) and Giemsa staining. […] The cells were plated in 24-well plates with coverslips using the densities of 1 × 10^5 cells/well in Ishikawa and Hec50co and 2.5 × 10^5 cells/well in COV434 and HFF-1. After adherence, the cells were treated with Mito6_TPP (5 μM), Mito6_picol. (20 μM), or Mito6_isoq. (10 μM) and incubated at 37 °C with 5% CO2 for 72 h. For Giemsa staining, the cells were fixated with paraformaldehyde 4% in Phosphate Buffered Saline (PBS) for 15 min, stained with Giemsa solution for 30 min, mounted with DPX, and observed through bright field microscopy. For Höechst staining, the cells were incubated with 0.5 μg/mL Höechst 33342 in PBS for 20 min in the dark, mounted in Fluoroshield, and observed under a fluorescence microscope equipped with an excitation filter with maximum transmission at 360/400 nm. In both stainings, the cells were observed using the microscope Eclipse CI (Nikon, Japan) and the images were processed with Nikon NIS Elements Image Software (Nikon, Japan).

Hec50co cells [2] = assay: Cell morphology by Giemsa staining; details: 72 h, 5 μM Mito6_TPP, 20 μM Mito6_picol., 10 μM Mito6_isoq.
Experimental: as §1

COV434 cells [3] = assay: Intracellular ROS/RNS assessment, DCFH-DA probe; details: COV434, 10 μM, 2 h immediately after addition
Experimental: (§2) The assay for the evaluation of the levels of ROS/RNS was based on the work of Bak, et al.. All cell lines were cultured in black 96-well plates at a density of 5 × 10^4 cells/well and allowed to adhere for 24 h. After adherence, the cells were incubated with 2′,7′-dichlorodihydrofluorescein diacetate (DCFH-DA) (25 μM) for 1 h at 37 °C in the dark. The DCFH-DA probe allows the detection of intracellular ROS, more specifically H2O2, HO^● and ROO^●, and RNS, more specifically, ^●NO and ONOO^− [51]. The cells were then treated with 10 μM of either Mito6_TPP, Mito6_picol., or Mito6_isoq. The stress inducer H2O2 (200 μM) was used as the positive control. The fluorescence provided by the probe was measured immediately and every 5 min for 2 h at 37 °C using a BioTek Synergy HTX Multi-Mode Microplate Fluorimeter equipped with BioTek Gen5 Data Collection and Analysis Software (BioTek Instruments, Winooski, VT, USA) (excitation: 485 nm; emission: 530 nm).

Hec50co cells [4] = assay: Intracellular ROS/RNS assessment, DCFH-DA probe; details: 10 μM, 2 h immediately after addition
Experimental: as §2

Ishikawa cells = assay: Intracellular ROS/RNS assessment, DCFH-DA probe; details: 10 μM, 2 h immediately after addition
Experimental: as §2

[5] = system: Ishikawa, Hec50co, COV434, and HFF-1 cells; assay: Cell viability (MTT and NR assays), statements over all cell lines
Experimental: The Ishikawa, Hec50co, COV434, and HFF-1 cell lines were plated at a density of 5 × 10^4 cells/well in transparent 96-well plates. After 24 h, the cells were treated with Mito6_TPP, Mito6_picol., or Mito6_isoq. (0.01–100 μM) and incubated at 37 °C with 5% CO2 for 24, 48, or 72 h. […] The conditions of the methylthiazolyldiphenyl-tetrazolium bromide (MTT) assay were adapted from the work of Banerjee et al.. Briefly, MTT was added to a final concentration of 0.5 mg/mL, and the cells were incubated for 3 h at 37 °C with 5% CO2. After the 3 h, purple MTT formazan crystals were dissolved by agitation for 15 min in a solution of DMSO/isopropanol (ratio 3:1) and quantified spectrophotometrically at 540 nm. The neutral red (NR) assay conditions were based on the work developed by Repetto et al.. Briefly, after the incubation time, cells were incubated with NR at 40 μg/mL in an FBS-free cell medium for 3 h. The cells were then incubated with a solution of 50% ethanol (96% v/v), 49% deionized water, and 1% glacial acetic acid, with shaking for 15 min. The NR extracted from the cells was measured at 540 nm. […] For all assays, the absorbance was read using a BioTek Synergy HTX Multi-Mode Microplate Reader equipped with BioTek Gen5 Data Collection and Analysis Software (BioTek Instruments, Winooski, VT, USA).

| SMILES | Cell morphology changes (Giemsa staining) (COV434 cells [1]) | Cell morphology changes (Giemsa staining) (Hec50co cells [2]) | Intracellular ROS levels vs untreated cells (COV434 cells [3]) | Intracellular ROS levels vs untreated cells (Hec50co cells [4]) | Intracellular ROS levels vs untreated cells (Ishikawa cells) | Lowest concentration inducing a significant decrease in cell viability [5] |
| --- | --- | --- | --- | --- | --- | --- |
| O=C(/C=C/c1ccc(O)c(O)c1)NCCCCCCCCCC[P+](c1ccccc1)(c1ccccc1)c1ccccc1 [Mito6_TPP] | altered cell shapes and indications of chromatin condensation | altered cell shapes and indications of chromatin condensation | faster and more accentuated decrease in ROS levels | faster and more accentuated decrease in ROS levels | faster and more accentuated decrease in ROS levels | 1 µM |
| O=C(/C=C/c1ccc(O)c(O)c1)NCCCCCCCCCC[n+]1ccc2ccccc2c1 [Mito6_isoq.] | cell shape alterations; also recorded: indications of chromatin condensation | – | – | – | – | – |
| Cc1cc[n+](CCCCCCCCCCNC(=O)/C=C/c2ccc(O)c(O)c2)cc1 [Mito6_picol.] | did not induce any morphological changes | did not induce any morphological changes | no effects | – | – | – |
